Experimental data as given in the METLIN SMRT retention time set (Domingo-Almenara et al. 2019).

Assay: gradient 5% acetonitrile 3 min, to 50% in 2 min, to 85% in 15 min, held 3 min, 100 µL/min
Conditions: column: Zorbax Extend-C18 2.1 x 50 mm; eluents: water / acetonitrile, 0.1% formic acid
Procedure, shortened: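 Retention times of pure standards were taken from adduct peaks that were selected by computer and manually inspected. Over 3 months, mixtures of ~100 molecules were run by HPLC–quadrupole time-of-flight mass spectrometry in positive and negative ionization mode. The Zorbax Extend-C18 column (2.1 × 50 mm, 1.8 μm) ran at 100 μL/min in water and acetonitrile, each containing 0.1% formic acid, with 40 μL dead volume and 900 μL dwell volume.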

Work on `Cc1oc(-c2[nH]ncc2C(=O)N(C)C)cc1S(=O)(=O)N1CCN(CC(C)C)CC1` yielded an RP-LC retention time of 580 s.
For `O=C(Cn1nc2c(cc1=O)CCCC2)Nc1ccc(Br)cc1`, the RP-LC retention time was 747 s.
`Oc1ccc(-c2nc3ncccn3c2Nc2cccc(C(F)(F)F)c2)cc1` showed an RP-LC retention time of 764 s.
Work on `COc1ccc(NC(=O)C2CCN(c3nccnc3Sc3ccccc3)CC2)cc1Cl` yielded an RP-LC retention time of 1100 s.
In the case of `CC1CCN(C(=O)CSc2nnc(-c3ccc(F)cc3)o2)CC1`, the RP-LC retention time is reported as 958 s.
Compound `COc1ccc(CNC(=O)CSc2nccc(N3CCN(c4cc(C)ccc4C)CC3)n2)cc1` has an RP-LC retention time of 861 s.
Compound `Cc1nnc(N2CCC(C(=O)NCC3CCCO3)CC2)c2nn(-c3ccccc3)c(C)c12` (stereo not drawn) has an RP-LC retention time of 632 s.
For `COc1ccc(NC(=O)C2CCCN(Cc3nc(-c4cccs4)no3)C2)cc1Cl` (stereo not drawn), the RP-LC retention time was 728 s.
Compound `CCc1nc2cc(-c3noc(-c4cc(F)ccc4F)n3)ccc2o1` has an RP-LC retention time of 1180 s.
Work on `CC(Cc1ccco1)NC(=O)c1ccc2c(c1)nc1n2CCCCC1` (stereo not drawn) yielded an RP-LC retention time of 620 s.
`Cc1nc(-c2ccccc2)cc2nn(CC(=O)Nc3ccc(F)c(Cl)c3)c(=O)n12` gave an RP-LC retention time of 1010 s.
For `CCN1CCc2nc(-c3ccc(F)cc3)n(CC(=O)N3CCCc4ccccc43)c(=O)c2C1`, the RP-LC retention time was 625 s.
In the case of `CCC(=O)Nc1ccc(-c2nc(-c3ccc(Cl)cc3)no2)cc1`, the RP-LC retention time is reported as 1130 s.
Compound `CCOC(=O)C1CCN(C(=O)c2nnc(-c3ccc(S(=O)(=O)N(C)C)cc3)o2)CC1` has an RP-LC retention time of 829 s.
In the case of `Cc1nc2cc(N3CCC(C(=O)Nc4ccc(N5CCOCC5)cc4)CC3)cnc2nc1C`, the RP-LC retention time is reported as 649 s.
For `COC(=O)c1cccc(Nc2c(-c3ccc(N(C)C)cc3)nc3cnccn23)c1`, the RP-LC retention time was 776 s.
With `O=C(NCCc1c[nH]c2ccccc12)C1CCN(c2ncnc3c2oc2ccccc23)CC1` the RP-LC retention time was 722 s.
For `O=C(Nc1ccc(F)cc1Cl)c1c(O)c2cccnc2n(Cc2ccccc2)c1=O`, the RP-LC retention time was 1240 s.
Work on `CC(C)N1CC(c2nc(-c3ccccc3)no2)C2(CCCC2)C1` (stereo not drawn) yielded an RP-LC retention time of 737 s.
In the case of `Cc1cccc(NS(=O)(=O)c2cc3n(c2)CCCN(C)C3=O)c1`, the RP-LC retention time is reported as 695 s.
With `CCc1ccc(N2C(=O)C3N=NN(c4ccc(Br)c(C)c4)C3C2=O)cc1` (stereo not drawn) the RP-LC retention time was 1190 s.
`CC1CCN(C(=O)Cn2c(=O)c3cccn3c3ccc(F)cc32)CC1` showed an RP-LC retention time of 855 s.
Work on `Cc1cccc(N(C)S(=O)(=O)c2ccc3c(c2)CCCC(=O)N3)c1` yielded an RP-LC retention time of 813 s.
Work on `O=C(O)CCC1CCN(S(=O)(=O)c2ccccc2F)CC1` yielded an RP-LC retention time of 751 s.
For `CN(C)C(=O)c1ccc2c(c1)nnn2CCNC(=O)Nc1ccccc1`, the RP-LC retention time was 626 s.
With `Cc1ccccc1-c1nnc(CSc2ccc(NC(=O)C3CC3)cc2)o1` the RP-LC retention time was 933 s.
For `COc1ccc(-c2ncc(C(=O)Nc3ccc(OC)c(OC)c3)c(-c3ccncc3)n2)cc1`, the RP-LC retention time was 769 s.
`COc1ccc(Cl)cc1NC(=O)Cn1c(=O)n(-c2ccc(F)cc2)c(=O)c2c1cc(C)n2C` gave an RP-LC retention time of 938 s.
For `CC(=O)Nc1ccc(NC(=O)C(=O)NCCN2CCN(c3ccc(Cl)cc3)CC2)cc1`, the RP-LC retention time was 588 s.
In the case of `Cc1ccc(CNS(=O)(=O)c2ccc3c(c2)C(=O)N(C)c2ncccc2O3)cc1`, the RP-LC retention time is reported as 932 s.
In the case of `COC(=O)c1ccsc1NC(=O)c1c[nH]c2ccccc12`, the RP-LC retention time is reported as 882 s.
`CN1C(=O)c2ccccc2Oc2ccc(C(=O)N3CCCCC3)cc21` showed an RP-LC retention time of 807 s.
For `COC(=O)CN1N=C(C(=O)N2CCC(C)CC2)S(=O)(=O)c2ccccc21`, the RP-LC retention time was 825 s.
Work on `COc1ccccc1NC(=O)N1CCCC1c1cc(C(C)C)on1` (stereo not drawn) yielded an RP-LC retention time of 950 s.
`CCN1C(=O)c2cccnc2Sc2cc(NC(=O)C(C)C)ccc21` showed an RP-LC retention time of 711 s.
Work on `CCn1ccc2c(cc(C(=O)Nc3ccc(Cl)cc3C)n2C)c1=O` yielded an RP-LC retention time of 1320 s.
In the case of `Cc1cc(=O)n(CC(=O)Nc2cc(F)ccc2F)c(N2CCc3ccccc3C2)n1`, the RP-LC retention time is reported as 849 s.
With `CCc1ccc(NC(=O)CSc2nnc3c4cc(-c5ccc(F)cc5)nn4ccn23)cc1` the RP-LC retention time was 984 s.
`O=C(Cn1nc2n(c1=O)CCCCC2)Nc1ccc2c(c1)OCO2` gave an RP-LC retention time of 655 s.
`Cc1ccc(Nc2c(-c3ccc4c(c3)OCO4)nc3cnccn23)c(Br)c1` gave an RP-LC retention time of 1000 s.
For `CN(C)c1ccc(-c2nc3ncccn3c2NCc2ccccc2)cc1`, the RP-LC retention time was 726 s.
With `COc1cc(CNC(=O)C2CCCN(c3nccnc3Sc3ccc(C)cc3)C2)cc(OC)c1` (stereo not drawn) the RP-LC retention time was 1060 s.
`CC1Oc2ccc(-c3csc(NC(=O)CCc4ccccc4)n3)cc2N(C)C1=O` (stereo not drawn) showed an RP-LC retention time of 1010 s.
For `Cc1cc(C)cc(NC(=O)C2CCN(S(C)(=O)=O)c3cc(C)ccc3O2)c1` (stereo not drawn), the RP-LC retention time was 900 s.
With `C[C@@H]1CCNC(=O)c2cc3ccc(C(=O)Nc4nc5ccccc5n4CCCN(C)C)cc3n21` the RP-LC retention time was 642 s.
Compound `CCC(C)NC(=O)N1CC(c2nc(CCOCc3ccccc3)no2)C1` (stereo not drawn) has an RP-LC retention time of 812 s.
Compound `Cn1c(CCNC(=O)c2ccc(F)c(F)c2)nc2cccnc21` has an RP-LC retention time of 617 s.
`COc1cccc(-c2cc3c(=O)n(Cc4nc(-c5ccc(Cl)cc5)no4)ccn3n2)c1` gave an RP-LC retention time of 1120 s.
Compound `CSc1ccc(-c2nc3ccccn3c2NC2CCCCC2)cc1` has an RP-LC retention time of 802 s.
With `C=CCN(CC=C)c1nc(-c2ccc(Cl)cc2)nc2ccccc12` the RP-LC retention time was 936 s.
For `CCOC(=O)c1cccc(NC(=O)NC2COc3ccc(OC)cc3C2)c1` (stereo not drawn), the RP-LC retention time was 906 s.
`CCc1cccc(NC(=O)Cn2nc3cc(C)nc(N4CCCC4)n3c2=O)c1` gave an RP-LC retention time of 798 s.
In the case of `CCCc1nc2cccnc2n1C1CCN(C(=O)c2ccc(C)c(N3CCCC3=O)c2)C1` (stereo not drawn), the RP-LC retention time is reported as 580 s.
For `CCOc1cc(C(=O)N2CCN(c3cc(-c4cccs4)[nH]n3)CC2)cc(OCC)c1OCC`, the RP-LC retention time was 907 s.
`CCOC(=O)c1sc(NC(=O)C(C)Oc2ccc(OC)cc2)nc1C` (stereo not drawn) showed an RP-LC retention time of 996 s.
Compound `CCN1C(=O)c2cccnc2Sc2cc(NC(=O)c3ccc(Cl)cc3OC)ccc21` has an RP-LC retention time of 804 s.
`CCN1C(=O)C(C)(C(=O)Nc2ccc(C(=O)OC)cc2)Oc2cccnc21` (stereo not drawn) gave an RP-LC retention time of 861 s.
With `COc1ccc(-n2c(=O)n(C)c(=O)c3cc(C(=O)Nc4cccc(Cl)c4)cnc32)cc1` the RP-LC retention time was 1010 s.
`CCN1c2cc(F)ccc2C(=O)NC12CCN(C(=O)c1ccc3c(c1)OCO3)CC2` gave an RP-LC retention time of 771 s.
Work on `COc1ccc(-c2nc(-c3ccc4ncn(C)c4c3)no2)cc1` yielded an RP-LC retention time of 732 s.
For `COc1cc(-c2noc(CCn3nc(-c4ccccc4)ccc3=O)n2)cc(OC)c1OC`, the RP-LC retention time was 955 s.
Compound `Cc1cnc(-c2cccnc2)n1C1CCN(S(=O)(=O)c2ccc3c(c2)OCCO3)C1` (stereo not drawn) has an RP-LC retention time of 633 s.
`O=C(Nc1cccc(-c2nnc3n2CCCC3)c1)c1ccn[nH]1` gave an RP-LC retention time of 595 s.
In the case of `COCCNC(=O)C1CCCN(c2nn3cc(-c4ccc(F)cc4)nc3s2)C1` (stereo not drawn), the RP-LC retention time is reported as 756 s.
`Cc1oc(C(C)C)nc1C(=O)NC1CCCCC1` showed an RP-LC retention time of 1020 s.
Compound `O=C(NCc1ccccc1)Nc1cccc(-c2ccc(N3CCOCC3)nn2)c1` has an RP-LC retention time of 672 s.
With `O=S(=O)(c1cccn2c(SCc3ccccc3F)nnc12)N1CCCCC1` the RP-LC retention time was 869 s.
In the case of `CCOC(=O)c1ccc(NC(=O)N2CCc3nc[nH]c3C2)cc1`, the RP-LC retention time is reported as 609 s.
Work on `CCc1noc(NC(C)=O)c1-c1ccc(OC)c(S(=O)(=O)Nc2ccc(C)c(Cl)c2)c1` yielded an RP-LC retention time of 1300 s.
Compound `CCCCNc1nc(-c2ccccc2F)nc2ccccc12` has an RP-LC retention time of 730 s.
Work on `COc1ccc(C(=O)N2CCC(n3c(-c4ccoc4)nc4cccnc43)C2)cc1` (stereo not drawn) yielded an RP-LC retention time of 659 s.
Work on `COC(=O)c1cnn2c(C)c(Cc3ccc(C)cc3)c(C)nc12` yielded an RP-LC retention time of 885 s.
In the case of `COc1ccc(-c2nc3cc(C)ccn3c2NC(=O)c2ccc(Cl)cc2Cl)cc1`, the RP-LC retention time is reported as 753 s.
Compound `CCOc1ccc(NC(=O)Cn2nc3n(c2=O)CCCC3)cc1` has an RP-LC retention time of 655 s.
For `Cn1cc(C(CNC(=O)Nc2cccc(Cl)c2)c2cccnc2)c2ccccc21` (stereo not drawn), the RP-LC retention time was 756 s.
`O=C1C=C(Nc2cccnc2)c2ccccc2C1=O` showed an RP-LC retention time of 594 s.
Work on `CC(=O)Nc1ccc(-n2cnc(C(=O)NC(C)CCc3ccccc3)c2)nc1` (stereo not drawn) yielded an RP-LC retention time of 744 s.
`COc1cc(Nc2cc(C(=O)N3CCC(C)CC3)nc3ccc(C)cc23)cc(OC)c1OC` showed an RP-LC retention time of 703 s.
For `COc1cc(-c2nc(C3CC(=O)N(c4ccc(Cl)cc4)C3)no2)cc(OC)c1OC` (stereo not drawn), the RP-LC retention time was 993 s.
With `CCN1c2ccc(F)cc2C(=O)NC12CCN(C(=O)Cc1ccc(Cl)cc1)CC2` the RP-LC retention time was 848 s.
With `Cc1cc(C)c(S(=O)(=O)N2CCC3(CC2)c2nccn2CCN3C)c(C)c1` the RP-LC retention time was 684 s.
Work on `O=C(Nc1nnc(SCc2nnc(-c3ccccc3)o2)s1)c1ccccc1` yielded an RP-LC retention time of 866 s.
`COc1cc([C@@H]2c3cc4c(cc3[C@H](O)C3COC(=O)[C@@H]32)OCO4)cc(OC)c1OC` (stereo partly drawn) gave an RP-LC retention time of 811 s.
Compound `CCCn1cc(CCNC(=O)c2ccc(F)c(F)c2)c2cccnc21` has an RP-LC retention time of 791 s.
For `COCCCn1c(=O)c2ccccc2n(Cc2nc(-c3ccccc3OC)no2)c1=O`, the RP-LC retention time was 874 s.
Compound `CCC(C)NC(=O)C1COC2(CCN(C(=O)CC(C)(C)C)CC2)N1C(=O)c1ccc(OC)cc1` (stereo not drawn) has an RP-LC retention time of 760 s.
`Cc1cc(N2CCCCC2)nc(N2CCN(S(=O)(=O)c3ccc(-c4ccccc4)cc3)CC2)n1` gave an RP-LC retention time of 935 s.
`O=C(NCCn1c(=O)n(Cc2ccc(F)cc2)c2cccnc21)c1ccc2c(c1)OCO2` gave an RP-LC retention time of 778 s.
